Data on 14 compounds can be found in patent EP2140864A2 (H. Lundbeck A/S, priority 2001, dated 2002).

Broadly, the Ki is a dissociation constant, usually derived from enzyme kinetics or from competition with a known ligand.

Where two headings read alike, the source gives them in different places.

One assay deals with T1, human GAL3 receptor (Homo sapiens, UniProt O60755).
T1 construct: expressed in transfected cells
T1 sequence (O60755 1-368): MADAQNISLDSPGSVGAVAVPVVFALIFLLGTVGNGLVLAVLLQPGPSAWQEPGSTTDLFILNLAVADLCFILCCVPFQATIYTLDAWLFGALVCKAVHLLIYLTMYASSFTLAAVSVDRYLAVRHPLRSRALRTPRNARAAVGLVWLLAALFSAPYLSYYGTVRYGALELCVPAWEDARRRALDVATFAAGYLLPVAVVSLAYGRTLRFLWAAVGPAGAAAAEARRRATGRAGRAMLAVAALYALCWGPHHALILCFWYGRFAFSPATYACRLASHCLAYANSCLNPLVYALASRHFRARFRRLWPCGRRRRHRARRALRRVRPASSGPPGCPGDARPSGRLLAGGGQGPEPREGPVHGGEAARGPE
As to the kind of experiment: Radioligand binding at cloned human GAL3 receptor. The method in brief:
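Membranes from LM(tk-) cells stably expressing human GAL3, prepared in binding buffer (HEPES-based, pH 7.4), used for radioligand binding. Solvent at final assay concentration: 3% DMSO for indolones, 1% ethanol/0.09% pluronic F-127 for pyrimidines. Binding data analysed by nonlinear regression.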

The next assay addresses T2, human α2C adrenoceptor (Homo sapiens, UniProt P18825).
T2 construct: expressed in transfected cells
T2 sequence (P18825 1-462): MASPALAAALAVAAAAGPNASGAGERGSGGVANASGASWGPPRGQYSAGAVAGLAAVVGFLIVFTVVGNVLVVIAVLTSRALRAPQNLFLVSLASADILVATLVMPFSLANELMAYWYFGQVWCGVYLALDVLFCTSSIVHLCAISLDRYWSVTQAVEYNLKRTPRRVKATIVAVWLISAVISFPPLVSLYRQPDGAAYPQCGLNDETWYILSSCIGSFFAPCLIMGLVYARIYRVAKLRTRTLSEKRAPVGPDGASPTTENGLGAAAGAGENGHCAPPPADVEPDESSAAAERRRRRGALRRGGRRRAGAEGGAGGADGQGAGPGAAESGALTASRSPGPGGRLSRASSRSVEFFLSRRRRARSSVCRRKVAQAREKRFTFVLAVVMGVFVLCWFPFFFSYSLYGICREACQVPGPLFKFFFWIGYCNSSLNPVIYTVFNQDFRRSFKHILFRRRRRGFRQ
As to the kind of experiment: Radioligand binding, α2C adrenergic receptor. The source says:
(§1) Other receptors: Cell membranes expressing human dopamine D1, D2, D4 and rat D3 receptors were purchased through BioSignal, Inc. (Montreal, Canada). Binding assays using the histamine H1 receptor; dopamine receptors; and α1A, α1E, and α2 adrenergic receptors may be carried out according to the procedures described in U.S. Patent No. 5,780,485, the disclosure of which is hereby incorporated by reference in its entirety into this application. Binding assays using the dopamine D5 receptor may be carried out according to the procedures described in U.S. Patent No. 5,882,855, the disclosure of which is hereby incorporated by reference in its entirety into this application. Binding assays for the human α1D adrenergic receptor may be carried out according to the procedures described in U.S. Patent No. 6,156,518, the disclosure of which is hereby incorporated by reference in its entirety into this application.
(§2) Binding data were analyzed using nonlinear regression and statistical techniques available in the GraphPAD Prism package (San Diego, CA). Enzymatic assay data were derived from a standard curve of reference compound data.

A further assay has as its target T3, rat D3 receptors (Rattus norvegicus, UniProt P19020).
T3 construct: purchased BioSignal, Inc. (Montreal, Canada)
As to the kind of experiment: Radioligand binding, dopamine D3 receptor.
Text: as §1, §2

Where [1] appears, read: indolones, cloned human receptor, read-out: Ki GalR3.
Where [2] appears, read: Table 10; Ki hα2C divided by Ki hGAL3.
The mark [3] stands for this setting: Table 10; Ki rD3 divided by Ki hGAL3.
[4] abbreviates: pyrimidines, cloned human receptor, read-out: Ki GalR3.

T3 sequence (P19020 whole entry): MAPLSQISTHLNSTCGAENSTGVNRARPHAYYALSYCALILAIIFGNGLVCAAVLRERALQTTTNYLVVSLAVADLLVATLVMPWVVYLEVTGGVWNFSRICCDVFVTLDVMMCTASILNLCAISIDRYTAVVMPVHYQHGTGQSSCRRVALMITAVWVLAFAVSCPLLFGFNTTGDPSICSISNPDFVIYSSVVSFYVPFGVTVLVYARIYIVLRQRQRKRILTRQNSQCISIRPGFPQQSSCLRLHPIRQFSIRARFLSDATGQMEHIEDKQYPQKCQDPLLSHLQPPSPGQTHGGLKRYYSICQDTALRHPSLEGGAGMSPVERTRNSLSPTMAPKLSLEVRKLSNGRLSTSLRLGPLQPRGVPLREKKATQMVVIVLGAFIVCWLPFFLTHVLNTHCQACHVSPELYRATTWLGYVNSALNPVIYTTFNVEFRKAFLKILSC

As for `O=C1C(=Nc2ccc(C(F)(F)F)cc2)c2ccccc2N1c1ccccc1` [Example 95, 1-PHENYL-3-[[4-(TRIFLUOROMETHYL)PHENYL]IMINO]-1,3-DIHYDRO-2H-INDOL-2-ONE], the Ki on human GAL3 receptor (Table 7, read-out: hGAL3 Ki) came out at 29 nM; at human GAL3 receptor (Table 9, read-out: hGAL3 Ki), 29 nM; at human GAL3 receptor (setting [1]) it was 29 nM; at human α2C adrenoceptor (Table 9; read-out: hα2C Ki) it was 48600 nM; on rat D3 receptors (Table 9; read-out: rD3 Ki), 466 nM. Besides, the “selectivity ratio hα2C” value on human α2C adrenoceptor (setting [2]) is given as over 100. Besides, the “selectivity ratio rD3” value on rat D3 receptors (setting [3]) is on record as 16.
Turning to `Cc1ccc(Nc2cc(N(C)C)nc(N(C)CCc3c[nH]c4ccccc34)n2)cc1` [Example 77], the Ki stood at 79 nM at human GAL3 receptor (Table 7, read-out: hGAL3 Ki); 79 nM on human GAL3 receptor (Table 9, read-out: hGAL3 Ki); 79 nM at human GAL3 receptor (setting [4]); 634 nM at human α2C adrenoceptor (Table 9; read-out: hα2C Ki); 2720 nM on rat D3 receptors (Table 9; read-out: rD3 Ki). On human α2C adrenoceptor (setting [2]), the “selectivity ratio hα2C” value came to 8. The “selectivity ratio rD3” value at rat D3 receptors (setting [3]) is recorded as over 30.
For `Cc1ccc(Nc2cc(N3CCCCC3)nc(N(C)CCc3ccccc3)n2)cc1` [Example 22], the Ki on human GAL3 receptor (Table 7, read-out: hGAL3 Ki) is 28 nM; at human GAL3 receptor (Table 9, read-out: hGAL3 Ki), 28 nM; on human GAL3 receptor (setting [4]) it was 28 nM; on human α2C adrenoceptor (Table 9; read-out: hα2C Ki), 2740 nM; at rat D3 receptors (Table 9; read-out: rD3 Ki), 5660 nM. The “selectivity ratio hα2C” value at human α2C adrenoceptor (setting [2]) is recorded as over 100. Besides, the “selectivity ratio rD3” value at rat D3 receptors (setting [3]) is over 100.
Regarding `O=C1C(=Nc2ccc(Cl)cc2)c2ccccc2N1c1ccccc1` [Example 97, 3-[(4-CHLOROPHENYL)IMINO]-1-PHENYL-1,3-DIHYDRO-2H-INDOL-2-ONE], the Ki on human GAL3 receptor (Table 7, read-out: hGAL3 Ki) is 51 nM; at human GAL3 receptor (Table 9, read-out: hGAL3 Ki), 51 nM; on human GAL3 receptor (setting [1]) it was 51 nM; on human α2C adrenoceptor (Table 9; read-out: hα2C Ki) it was over 50000 nM; at rat D3 receptors (Table 9; read-out: rD3 Ki), 9720 nM. The “selectivity ratio hα2C” value at human α2C adrenoceptor (setting [2]) is over 100. Moreover, on rat D3 receptors (setting [3]), the “selectivity ratio rD3” value is given as over 100.
As for `COc1cccc(Nc2cc(N3CCCCC3)nc(N(C)CCc3c[nH]c4ccccc34)n2)c1` [Example 17], the Ki was 87 nM on human GAL3 receptor (Table 7, read-out: hGAL3 Ki); 87 nM at human GAL3 receptor (Table 9, read-out: hGAL3 Ki); 87 nM on human GAL3 receptor (setting [4]); 10300 nM on human α2C adrenoceptor (Table 9; read-out: hα2C Ki); 2480 nM on rat D3 receptors (Table 9; read-out: rD3 Ki). In addition, the “selectivity ratio hα2C” value on human α2C adrenoceptor (setting [2]) was over 100. Moreover, the “selectivity ratio rD3” value on rat D3 receptors (setting [3]) is on record as 28.
Take `COC[C@@H]1[C@@H](c2ccccc2)OCCN1c1nc(Nc2ccc(C)cc2)cc(N2CCCCC2)n1` [Example 49]: the Ki is 211 nM at human GAL3 receptor (read-out: Ki GalR3, pyrimidines, cloned human receptor); 211 nM on human GAL3 receptor (read-out: hGAL3 Ki, Table 7); 211 nM on human GAL3 receptor (read-out: hGAL3 Ki, Table 9); 9240 nM at human α2C adrenoceptor (read-out: hα2C Ki; Table 9); 14000 nM at rat D3 receptors (read-out: rD3 Ki; Table 9). In addition, the “selectivity ratio hα2C” value at human α2C adrenoceptor (setting [2]) is recorded as over 30. Further, the “selectivity ratio rD3” value at rat D3 receptors (setting [3]) is listed as over 30.
On to `CN(C)c1cc(Nc2ccc(Cl)c(Cl)c2)nc(Nc2ccccc2)n1` [Example 60], for which the Ki at human GAL3 receptor (Table 7, read-out: hGAL3 Ki) was 86 nM; on human GAL3 receptor (Table 9, read-out: hGAL3 Ki), 86 nM; on human GAL3 receptor (setting [4]) it was 86 nM; at human α2C adrenoceptor (Table 9; read-out: hα2C Ki), 7200 nM; on rat D3 receptors (Table 9; read-out: rD3 Ki), 15300 nM. For the same compound, the “selectivity ratio hα2C” value at human α2C adrenoceptor (setting [2]) is on record as over 30. Further, the “selectivity ratio rD3” value at rat D3 receptors (setting [3]) is recorded as over 100.
For `O=C1C(=Nc2ccc(Br)cc2)c2ccccc2N1c1ccccc1` [Example 98, 3-[(4-BROMOPHENYL)IMINO]-1-PHENYL-1,3-DIHYDRO-2H-INDOL-2-ONE], the Ki was 38 nM at human GAL3 receptor (Table 7, read-out: hGAL3 Ki); 38 nM on human GAL3 receptor (Table 9, read-out: hGAL3 Ki); 38 nM at human GAL3 receptor (setting [1]); over 50000 nM at human α2C adrenoceptor (Table 9; read-out: hα2C Ki); 592 nM on rat D3 receptors (Table 9; read-out: rD3 Ki). Also, the “selectivity ratio hα2C” value at human α2C adrenoceptor (setting [2]) is listed as over 100. Besides, at rat D3 receptors (setting [3]), the “selectivity ratio rD3” value amounted to 16.
For the compound `O=C1C(=Nc2cc(Cl)cc(Cl)c2)c2ccccc2N1c1ccccc1` [Example 103, 3-[(3,5-DICHLOROPHENYL)IMINO]-1-PHENYL-1,3-DIHYDRO-2H-INDOL-2-ONE], the Ki on human GAL3 receptor (setting [1]) worked out at 68 nM.
Turning to `O=C1C(=Nc2cccc(Cl)c2)c2ccccc2N1c1ccccc1` [Example 94, 3-[(3-CHLOROPHENYL)IMINO]-1-PHENYL-1,3-DIHYDRO-2H-INDOL-2-ONE], the Ki at human GAL3 receptor (Table 7, read-out: hGAL3 Ki) turned out to be 49 nM; at human GAL3 receptor (Table 9, read-out: hGAL3 Ki), 49 nM; on human GAL3 receptor (setting [1]), 49 nM; at human α2C adrenoceptor (Table 9; read-out: hα2C Ki), 47900 nM; at rat D3 receptors (Table 9; read-out: rD3 Ki) it was 423 nM. The “selectivity ratio hα2C” value on human α2C adrenoceptor (setting [2]) is over 100. Also, the “selectivity ratio rD3” value on rat D3 receptors (setting [3]) was 9.
Consider `Cc1ccc(Nc2cc(N3CCCCC3)nc(N(C)CCc3c[nH]c4ccccc34)n2)cc1` [Example 11], for which the Ki at human GAL3 receptor (Table 7, read-out: hGAL3 Ki) worked out at 91 nM; on human GAL3 receptor (Table 9, read-out: hGAL3 Ki), 91 nM; at human GAL3 receptor (setting [4]), 91 nM; at human α2C adrenoceptor (Table 9; read-out: hα2C Ki), 3000 nM; at rat D3 receptors (Table 9; read-out: rD3 Ki), 2140 nM. For the same compound, the “selectivity ratio hα2C” value at human α2C adrenoceptor (setting [2]) is given as over 30. Moreover, on rat D3 receptors (setting [3]), the “selectivity ratio rD3” value is 24.
As to `CN(CCc1c[nH]c2ccccc12)c1nc(Nc2ccc(F)c(F)c2)cc(N2CCCCC2)n1` [Example 15], the inhibition constant Ki was 73 nM on human GAL3 receptor (Table 7, read-out: hGAL3 Ki); 73 nM on human GAL3 receptor (Table 9, read-out: hGAL3 Ki); 73 nM at human GAL3 receptor (setting [4]); 8200 nM at human α2C adrenoceptor (Table 9; read-out: hα2C Ki); 8810 nM on rat D3 receptors (Table 9; read-out: rD3 Ki). In addition, at human α2C adrenoceptor (setting [2]), the “selectivity ratio hα2C” value is over 100. In addition, the “selectivity ratio rD3” value on rat D3 receptors (setting [3]) is over 100.
In the case of `O=C1C(=Nc2cccc(C(F)(F)F)c2)c2ccccc2N1c1ccccc1` [Example 92, 1-PHENYL-3- [[3-(TRIFLUOROMETHYL)PHENYL]IMINO]-1,3-DIHYDRO-2H-INDOL-2-ONE], the “selectivity ratio hα2C” value on human α2C adrenoceptor (setting [2]) was over 100. For the same compound, the “selectivity ratio rD3” value at rat D3 receptors (setting [3]) is on record as over 100.
As for `Cc1ccc(Nc2cc(N3CCCCC3)nc(N3CCN(c4ncccc4C(F)(F)F)CC3)n2)cc1` [Example 34], the “GAL1/GAL3 Ki ratio” value on human GAL3 receptor (Ki at GAL1 divided by Ki at human GAL3) was 39. In addition, the Ki at human GAL3 receptor (Table 7, read-out: hGAL3 Ki) was determined as 23 nM; at human GAL3 receptor (Table 9, read-out: hGAL3 Ki), 23 nM; on human GAL3 receptor (setting [4]) it was 23 nM; on human α2C adrenoceptor (Table 9; read-out: hα2C Ki), 8830 nM; on rat D3 receptors (Table 9; read-out: rD3 Ki), 9920 nM. Further, the “selectivity ratio hα2C” value at human α2C adrenoceptor (setting [2]) is on record as over 100. The “selectivity ratio rD3” value at rat D3 receptors (setting [3]) was over 100.
